From patent publication US6759544B2, “Antimicrobially active acesulfame complexes, process for their preparation and their use” (Nutrinova Nutrition Specialties & Food Ingredients GmbH, priority 2001, dated 2004)

How the values were obtained:
Format in all cases: cell-based
[1] = tested on: Actinomyces odontolyticus (ATCC 17982); assay: Minimum inhibitory concentration, Actinomyces odontolyticus
Description: (§1) Method for Determining the Minimum Inhibitory Concentration
(§2) The samples, to determine the minimum inhibitory concentration, are dissolved in WSH (water of standardized hardness) and mixed with twice-concentrated Caso-Bouillon pH 5.5. After inoculation with the test organisms, the solutions of the test organisms Streptococcus mutans (ATCC 25175) and Actinomyces odontolyticus (ATCC 17982) were overlayered with paraffin and incubated for a period of three days at a temperature of 37° C.
(§3) The solution of the test organism Staphylococcus aureus (ATCC 6538) was incubated for two days at 37° C. The samples were then streaked onto Caso agar and incubated for two days at 37° C.

[2] = tested on: Streptococcus mutans (ATCC 25175); assay: Minimum inhibitory concentration, Streptococcus mutans
Description: as §1, §2, §3

[3] = tested on: Staphylococcus aureus (ATCC 6538); assay: Minimum inhibitory concentration, Staphylococcus aureus
Description: as §1, §2, §3

[4] = Actinomyces odontolyticus (ATCC 17982), Caso-Bouillon pH 5.5, overlayered with paraffin, three days at 37° C.
[5] = Streptococcus mutans (ATCC 25175), Caso-Bouillon pH 5.5, overlayered with paraffin, three days at 37° C.
[6] = Staphylococcus aureus (ATCC 6538), Caso-Bouillon pH 5.5, two days at 37° C.

SMILES | Minimum inhibitory concentration ([1]; pH 5.5) [mM] | Minimum inhibitory concentration ([2]; pH 5.5) [mM] | Minimum inhibitory concentration ([3]; pH 5.5) [mM] | other results
CC1=CC(=O)[N-]S(=O)(=O)O1.[Ag+] [Ag(acesulfame).0.25H2O, Acesulfame-Silver Complex] |  |  |  | Minimum inhibitory concentration [1, 4]: 18.31 mM; Minimum inhibitory concentration [2, 5]: 18.31 mM; Minimum inhibitory concentration [3, 6]: 3.65 mM
O=[N+]([O-])[O-].[Ag+] [AgNO3, silver(I) nitrate] |  |  |  | Minimum inhibitory concentration [1, 4]: 5.91 mM; Minimum inhibitory concentration [2, 5]: 5.91 mM; Minimum inhibitory concentration [3, 6]: 5.91 mM
CCCCCCCCCCCCCCCC[n+]1ccccc1.O.[Cl-] [Cetylpridinium chloride.H2O, cetylpyridinium chloride.H2O] | 0.00279 | 0.00279 | 0.13966 | 
CC1=CC(=O)[N-]S(=O)(=O)O1.CCCCCCCCCCCCCCCC[n+]1ccccc1 [Cetylpyridinium(acesulfame), Acesulfame-Cetylpyridinium Complex] | 0.00214 | 0.00214 | 0.10703 | 
O.O.O.O.O.O=S(=O)([O-])[O-].[Cu+2] [CuSO4.5H2O, copper(II) sulfate pentahydrate] | 20.13 | 4.01 | 20.13 | 
CC1=CC(=O)[N]([Zn]([OH])([OH])[N]2C(=O)C=C(C)OS2(=O)=O)S(=O)(=O)O1 [Zn(acesulfame)2.2H2O, Acesulfame-Zinc Complex] |  |  |  | MIC ([1]; Schaalia odontolytica, ATCC17982, 72 h, Actinomyces odontolyticus (ATCC 17982), Caso-Bouillon pH 5.5, overlayered with paraffin, three days at 37° C.): 11.8 mM; MIC ([2]; ATCC25175, 72 h, Streptococcus mutans (ATCC 25175), Caso-Bouillon pH 5.5, overlayered with paraffin, three days at 37° C.): 23.7 mM; MIC ([3]; ATCC6538, 48 h, Staphylococcus aureus (ATCC 6538), Caso-Bouillon pH 5.5, two days at 37° C.): 23.7 mM
O.O.O.O.O.O.O.O=S(=O)([O-])[O-].[Zn+2] [ZnSO4.7H2O, zinc(II) sulfate heptahydrate] | 17.5 | 17.5 | 17.5 | 
